Laboratory results taken from patent publication US11136370B2, “Compositions and methods for thrombin generation assay” (The Scripps Research Institute, priority 2016, dated 2021).
“Also recorded” adds a separate entry of the source.

How the values were obtained:
[1] = biological target: T1, ternary TF-FVIIa-FXa complex (Homo sapiens, UniProt P00742); experiment: FV activation (FVa generation, WB) by TF-FVIIa with FX; assay type: biochemical; conditions: clinically relevant concentrations
T1 construct: purchased Haematologic Technologies (FX); Siemens Healthcare Diagnostics (rTF); FVIIa made in house
T1 sequence (P00742 41-179 limits assumed): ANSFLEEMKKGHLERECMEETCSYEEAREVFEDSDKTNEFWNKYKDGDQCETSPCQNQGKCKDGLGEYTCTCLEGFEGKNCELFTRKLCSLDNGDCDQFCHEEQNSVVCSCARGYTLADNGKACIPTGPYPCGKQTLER
T1 sequence (P00742 235-488 limits assumed): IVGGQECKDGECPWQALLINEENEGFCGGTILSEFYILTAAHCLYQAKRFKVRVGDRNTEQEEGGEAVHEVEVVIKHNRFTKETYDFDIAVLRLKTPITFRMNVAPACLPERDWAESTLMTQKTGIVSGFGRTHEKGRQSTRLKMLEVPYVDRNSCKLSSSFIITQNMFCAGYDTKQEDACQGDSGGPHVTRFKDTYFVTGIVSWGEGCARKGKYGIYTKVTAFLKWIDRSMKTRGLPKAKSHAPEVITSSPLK
Procedure: (A) Phospholipid-free assay of FX (1 μM) to FXa conversion by the complex of 2 μM soluble rTF with 10 nM FVIIa WT, T99Y or E154A. (B) FXa generation by 50 pM phospholipid-reconstituted rTF with 200 pM FVIIa WT, T99Y or E154A added to 135 nM FX, 0.7 nM FVIII, 3 nM FV and 200 nM lepirudin (2 min, n=2-3; 4 min, n=4-5; 6 min, n=6-9). (C) WB (representing 2) of FVIII activation in reactions of 50 pM TF, 200 pM FVIIa WT or mutants, 0.7 nM FVIII, 3 nM FV and 200 nM lepirudin without/with 135 nM FX, incubated for 120 s at 37° C. […] (E) FXa generation measured in reactions as in (D) without TFPIα and in the presence of 10 nM FIXa (left, incubation 180 s; n=5-6 except=2 for E154A) or 90 nM FIX (right, incubation for 360 s; n=5-6). […] Differences were evaluated by the ANOVA/Tukey test; results at 4 and 6 min in (B) and in reactions with FIX in (E, right) were analyzed after transformation as y=log 10 y (**P<0.01, ***P<0.001).
Time-course (mean±SEM) of 1 μM FX activation by 2 μM phospholipid-free soluble recombinant TF with 10 nM FVIIa WT (n=4-7), T99Y (n=2-3) or E154A mutants (n=3-4); incubation at 37° C. […] FVIIIa activity (25th-75th percentile bars, min to max whiskers, line at the median) generated as in (B), but without TFPIα, measured as FXa produced by 10 nM FIXa (n=9 for FVIIa WT and T99Y; n=5 for E154A). **P<0.01, ***P<0.001) by ANOVA/Tukey tests. […]

[2] = test system: fibrillar collagen type I; experiment: Blood perfusion over fibrillar collagen type I, volume of platelet aggregates and fibrin; assay type: cell-based, human; conditions: blood of treated patients, collagen surface
Procedure: The volume of platelet aggregates and deposited fibrin was measured by confocal microscopy. Statistical analysis by one-way ANOVA and Tukey post-test. *P<0.05; **P<0.01; ***P<0.001.
Glass coverslips treated with 0.2 mg/ml poly-L-lysine for 6 h at 37° C. were coated with rTF for 18-20 hours at 37° C. or 2.5 mg/ml acid-insoluble type I collagen for 2 hours at 22-25° C. Then they were rinsed with pH 7.4 buffered-saline, assembled in a rectangular flow chamber with a 125 μm-high silicon gasket and positioned on a confocal microscope stage for analysis. Venous blood for testing was collected into final 10.9 mM trisodium citrate using a plastic syringe for normal volunteers or Vacutainer tubes (Becton Dickinson, Buccinasco, Milan) for patients and controls. Before perfusion at a flow rate yielding an initial wall shear rate of 300 s^−1 maintained with a syringe pump (Harvard Apparatus, Holliston, Mass.), CaCl2 was added to obtain 1.29 mM Ca^2+. In the blood of patients—potentially hypercoagulable—and related controls, lepirudin (50 nM) was also added to neutralize thrombin possibly generated before testing. […] For experiments with WT and mutant FVIIa, cells from group O citrated blood, containing 50 μg/ml CTI and 10 U/ml (ADPase activity) apyrase, were washed free of plasma by sequential centrifugation steps at 1500 g for 7 min. After the first, plasma was replaced with an equal volume of calcium-free Tyrode buffer, pH 6.5, with 5 U/ml apyrase; then with buffer and 1.25 U/ml apyrase; and finally with human FVII deficient plasma (George King Bio-Medical, Overland Park, Kans.) up to the original blood volume. […] Experiments in Milan (Italy) were performed with a Leica TCS SP5 microscope and HCX PL APO 63x/1.40 NA oil immersion objective (Leica Microsystems GmbH, Wetzlar, Germany); in La Jolla (California) with a Zeiss Axiovert 135M/LSM 410 and Plan-Apochromat 40x/1.40 NA oil immersion objective (Carl Zeiss AG, Oberkochen, Germany).
Platelets adhering and aggregating onto the surface were visualized by adding quinacrine-HCl (mepacrine; 10 μg/ml; Sigma-Aldrich) to blood. Deposited fibrin was visualized with Alexa Fluor 546-labeled (Invitrogen) mouse monoclonal IgG (50 μg/ml) specific for the B chain of mouse and human fibrin (HB-8545; ATCC). […] This was followed by buffer (DMEM) for 2 minutes to facilitate fibrin quantification by confocal z section analysis using a Zeiss Axiovert 135M/LSM 410 microscope (Carl Zeiss) and Plan-Apochromat×63/1.40 NA oil immersion objective. […] Deposited fibrin volume was measured from confocal sections collected at 4 preset positions in the flow chamber. Total volume of deposited platelets and fibrin was calculated from the sum of the respective area coverage per section multiplied by the z interval (2 μm). […]

thrombin generation (TG) = experiment: TG in reactions with purified components (FVIIa, FIXa, rTF, FX, FV, prothrombin, TFPIα); assay type: biochemical, human; conditions: therapeutic doses
Procedure: Thrombin was quantified with a fluorogenic substrate for calculation of % inhibition. […] Reactions were initiated by 100 pM FXa with 50 pM rTF as the phospholipid surface (top); or the preformed complex of 50 pM TF, 100 pM iFVIIa, 100 pM FXa, 5 nM NAPc2 (middle); or 50 pM TF/200 pM FVIIa/135 nM FX (bottom) in mixtures of 0.7 nM FVIII, 3 nM FV, 200 nM lepirudin, 10 nM TFPI, and 2.5 mM CaCl2 incubated for 120 s at 37° C. […] (n=3-4). […] Endogenous thrombin potential (ETP, right) was calculated from the area under the TG curve (n=2). Results in (E) and (F) are shown as 25th-75th percentile bars with min to max whiskers or min to max bars (when n≤3) with a line at the median. Differences were evaluated with the ANOVA/Tukey test (performed after log 10 transformation of the data shown in E); *P<0.05, ***P<0.001.
The synthetic reaction mixtures comprised 0.7 nM FVIII, 3 nM FV, 135 nM FX, 104 prothrombin in 50 mM Tris-buffered saline, pH 7.4, with 0.1% BSA. […] Reactions to prevent thrombin effects were carried out in the presence of 200 nM lepirudin or 4 μM DAPA. […] Generation of FXa, FIIa and thrombin were evaluated by measuring amidolytic activity toward the chromogenic substrate S-2765 (180 μM; N-α-benzyloxycarbonyl-D-arginyl-L-glycyl-L-arginine-p-nitroaniline; DiaPharma, West Chester, Ohio) and the fluorogenic substrate Z-Gly-Gly-Arg-AMC (360 μM) respectively.

O=C(NC[C@H]1CN(c2ccc(N3CCOCC3=O)cc2)C(=O)O1)c1ccc(Cl)s1 [Rivaroxaban]
effect on FVa generation by the ternary TF-FVIIa-FXa complex [1]: blocked | mean volume of platelet aggregates vs controls [2]: not significantly different | volume of deposited fibrin vs controls [2]: not significantly decreased; also recorded: not significantly different from normal | effect on TG initiated by TF alone in reactions containing FIXa without FVIII (thrombin generation (TG)): inhibited
